In patent publication US20050197371A1, “Urea derivatives as PDGFR modulators” (Ambit Biosciences Corporation, priority 2003, published 2005):

Target: T1, PDGFRB(DKIN) (PDGFR-β) (Homo sapiens, UniProt P09619)
T1 construct: PDGFRB(DKIN)
Test: Phage-display competitive binding assay, PDGFRB(DKIN)
Conditions: T7 phage displaying human PDGFR-β, DKIN construct; read-out: Binding Assay: PDGFRB(DKIN)
Protocol: The term “ND” represents non-determined values.
Briefly, T7 phage displaying human PDGFR-β were incubated with an affinity matrix coated with known PDGFR-β inhibitor in the presence of various concentrations of the soluble competitor molecules.

| SMILES | Kd [nM] |
| --- | --- |
| CC(=O)c1ccc(N2CCC(C(=O)Nc3ccc(NC(=O)Nc4cc(C(C)(C)C)on4)cc3)CC2)cc1 [Compound N65] | 100 to 1000 |
| CC(C)(C)c1cc(NC(=O)Nc2ccc(NC(=O)c3cnn(-c4cccc(Cl)c4)c3Br)cc2)no1 [Compound N45] | 100 to 1000 |
| Cn1c(SCC(=O)Nc2ccc(NC(=O)Nc3cc(C(C)(C)C)on3)cc2)nnc1-c1cccn(Cc2ccccc2)c1=O [Compound Z47] | 100 to 1000 |
| CC(C)(C)c1cc(NC(=O)Nc2ccc(NC(=O)c3cnc4ccccc4n3)cc2)no1 [Compound N149] | 1000 to 10000 |
| CC(C)(C)c1cc(NC(=O)Nc2ccc(NC(=O)c3ccncc3)cc2)no1 [Compound N167] | < 100 |
| CC(=O)c1ccc(NC(=O)Nc2cc(C(C)(C)C)on2)cc1 [Compound A20] | 100 to 1000 |
| CC(C)(C)c1cc(NC(=O)Nc2ccc(NC(=O)c3ccc(Cl)nc3Cl)cc2)no1 [Compound N130] | 100 to 1000 |
| Cc1nc(C(=O)Nc2ccc(NC(=O)Nc3cc(C(C)(C)C)on3)cc2)nn1-c1cc(Cl)cc(Cl)c1 [Compound N15] | 100 to 1000 |
| CC(C)(C)c1cc(NC(=O)Nc2ccc(OCc3ccc(-c4ccccc4)cc3)cc2)no1 [Compound G56] | < 100 |
| CC1CN(CCOc2ccc(NC(=O)Nc3cc(C(C)(C)C)on3)cc2)CC(C)O1 (centres unmarked) [Compound G42] | 100 to 1000 |
| Cn1cc(C(=O)Nc2ccc(NC(=O)Nc3cc(C(C)(C)C)on3)cc2)c2ccccc21 [Compound N119] | < 100 |
| COc1ccc(-c2noc(-c3ccc(NC(=O)Nc4cc(C(C)(C)C)on4)cc3)n2)c2ccccc12 [Compound P3] | 1000 to 10000 |
| CCN(CC)CCNC(=O)c1ccc(NC(=O)Nc2cc(C(C)(C)C)on2)cc1 [Compound N102] | > 10000 |
| COC(=O)c1ccc(C(=O)Nc2ccc(NC(=O)Nc3cc(C(C)(C)C)on3)cc2)nc1 [Compound N113] | < 100 |
| CC(C)(C)c1cc(NC(=O)Nc2ccc(NC(=O)c3cc4cccnc4nc3C(F)(F)F)cc2)no1 [Compound N61] | 1000 to 10000 |
| CC(C)(C)c1cc(NC(=O)Nc2ccc(C(=O)Nc3nccnc3N)cc2)no1 [Compound N157] | < 100 |
| COc1ccc(N2CCCN(c3cc(C(C)(C)C)no3)C2=O)cc1 [Compound E5] | 100 to 1000 |
| Cc1ccc(NC(=O)Nc2cc(C(F)(F)F)cc(Cl)n2)cc1 [Compound W1] | 100 to 1000 |
| Cc1cccc(C(=O)Nc2ccc(NC(=O)Nc3cc(C(C)(C)C)on3)cc2)n1 [Compound N121] | < 100 |
| CSc1ncc(Br)c(C(=O)Nc2ccc(NC(=O)Nc3cc(C(C)(C)C)on3)cc2)n1 [Compound N114] | < 100 |
| CC(C)(C)c1cc(NC(=O)Nc2ccc(NC(=O)c3c(F)cccc3C(F)(F)F)cc2)no1 [Compound N95] | 1000 to 10000 |
| COc1cc(OC)nc(C2CCCCC2C(=O)Nc2ccc(NC(=O)Nc3cc(C(C)(C)C)on3)cc2)n1 (centres unmarked) [Compound N129] | 100 to 1000 |
| CC(C)(C)c1cc(NC(=O)Nc2ccc(NC(=O)c3ccccc3)cc2)no1 [Compound N34] | < 100 |
| CCc1ccc(C(=O)Nc2ccc(NC(=O)Nc3cc(C(C)(C)C)on3)cc2)cc1 [Compound N32] | < 100 |
| CC(C)(C)c1cc(C(=O)Nc2ccc(NC(=O)Nc3cc(C(C)(C)C)on3)cc2)n(-c2ccccc2)n1 [Compound N78] | 1000 to 10000 |
| C[S+]([O-])c1ccc(NC(=O)Nc2cc(C(C)(C)C)on2)cc1 (centres unmarked) [Compound A46] | 100 to 1000 |
| CC(C)(C)c1cc(NC(=O)Nc2ccc(CCc3ccccc3)cc2)no1 [Compound A15] | < 100 |

| SMILES | Kd [nM] |
| --- | --- |
| CC(C)(C)c1cc(NC(=O)Nc2ccc(OCCN3CCSCC3)cc2)no1 [Compound G53] | 100 to 1000 |
| Cn1nc(C(C)(C)C)cc1C(=O)Nc1ccc(NC(=O)Nc2cc(C(C)(C)C)on2)cc1 [Compound N10] | 100 to 1000 |
| CC(C)(C)c1cc(NC(=O)Nc2ccc(NC(=O)c3cc(Cl)cc(Cl)c3)cc2)no1 [Compound N29] | 100 to 1000 |
| CC(C)(C)c1cc(NC(=O)Nc2ccc(Nc3nc(Cl)nc4[nH]cnc34)cc2)no1 [Compound O4] | < 100 |
| CC(Oc1ccc(NC(=O)Nc2cc(C(C)(C)C)on2)cc1)c1ccccc1 (centres unmarked) [Compound G17] | 100 to 1000 |
| Cc1ccc(NC(=O)Nc2cc(C(C)(C)C)on2)cc1 [Compound A33] | < 100 |
| COc1ccnc(Nc2ccc(C(=O)Nc3ccc(NC(=O)Nc4cc(C(C)(C)C)on4)cc3)cc2)n1 [Compound N51] | < 100 |
| CC(C)(C)c1cc(NC(=O)Nc2ccc(Cl)cc2)on1 [Compound A32] | < 100 |
| CN(Cc1cccc([N+](=O)[O-])c1)C(=O)Nc1cc(C(C)(C)C)on1 [Compound J3] | 100 to 1000 |
| CC(C)(C)c1cc(NC(=O)Nc2ccc(NC(=O)c3cccnc3C(=O)O)cc2)no1 [Compound N165] | 100 to 1000 |
| CC(C)(C)c1cc(NC(=O)Nc2ccc(Nc3nc(N)nc4[nH]cnc34)cc2)no1 [Compound O6] | < 100 |
| CC(C)(C)c1cc(NC(=O)Nc2ccc(NC(=O)c3ccc4ccccc4c3)cc2)no1 [Compound N28] | < 100 |
| CC(C)(C)c1cc(NC(=O)Nc2ccc(NC(=O)c3ncccc3C(N)=O)cc2)n[nH]1 [Compound N6] | 100 to 1000 |
| CC(C)(C)c1cc(NC(=O)Nc2ccc(NC(=O)Cc3ccc(OCc4ccccc4)cc3)cc2)no1 [Compound N98] | > 10000 |
| Cc1nnsc1C(=O)Nc1ccc(NC(=O)Nc2cc(C(C)(C)C)on2)cc1 [Compound N18] | 100 to 1000 |
| COc1ccc(NC(=O)Nc2cc(C(F)(F)F)cc(Cl)n2)cc1 [Compound Z71] | 100 to 1000 |
| COc1cccc(-c2ccc(C(=O)Nc3ccc(NC(=O)Nc4cc(C(C)(C)C)on4)cc3)o2)c1 [Compound N105] | 100 to 1000 |
| CC(C)(C)c1cc(NC(=O)Nc2ccc(C(=O)/C=C/c3ccncc3)cc2)no1 | 100 to 1000 |
| CSc1ccc(NC(=O)Nc2cc(C(C)(C)C)no2)cc1 [Compound A39] | 100 to 1000 |
| CC(C)(C)c1cc(NC(=O)Nc2ccc(OCc3ccccc3)cc2)no1 [Compound G31] | < 100 |
| CC(C)c1cc(NC(=O)Nc2ccc(NC(=O)C3CCN(c4ncc(C(F)(F)F)cc4Cl)CC3)cc2)no1 [Compound N59] | 100 to 1000 |
| CCOC(=O)c1cccc(C(=O)Nc2ccc(NC(=O)Nc3cc(C(C)(C)C)on3)cc2)n1 [Compound N164] | < 100 |
| Cc1ccncc1C(=O)Nc1ccc(NC(=O)Nc2cc(C(C)(C)C)on2)cc1 [Compound N104] | 100 to 1000 |
| CC(C)(C)c1cc(NC(=O)Nc2ccc(Cl)cc2)no1 [Compound A27] | 100 to 1000 |
| O=C(c1cc2ccccc2[nH]1)c1cc2cc(O)ccc2[nH]1 | < 100 |
| Cc1nc(-c2ccc(C(=O)Nc3ccc(NC(=O)Nc4cc(C(C)(C)C)on4)cc3)s2)cs1 [Compound N173] | < 100 |
| CC(C)(C)c1cc(NC(=O)Nc2ccc(NC(=O)c3c(F)cccc3F)cc2)no1 [Compound N37] | 1000 to 10000 |

| SMILES | Kd [nM] |
| --- | --- |
| Cc1ccc(-c2cc(C(=O)Nc3ccc(NC(=O)Nc4cc(C(C)(C)C)on4)cc3)c(C)o2)cc1 [Compound N120] | 1000 to 10000 |
| O=C(Nc1ccc(Cl)cc1)Nc1ccno1 [Compound Z15] | 1000 to 10000 |
| Cc1ccccc1-c1noc(-c2ccc(NC(=O)Nc3cc(C(C)(C)C)on3)cc2)n1 [Compound P4] | < 100 |
| CC(C)(C)c1cc(NC(=O)Nc2ccc(CCc3ccc(N)cc3)cc2)no1 [Compound A3] | < 100 |
| CC(C)(C)c1cc(NC(=O)Nc2ccc(OCc3cccc(Cl)c3)cc2)no1 [Compound G11] | < 100 |
| CC(C)(C)c1cc(NC(=O)Nc2ccc(NC(=O)c3cnnc4ccccc34)cc2)no1 [Compound N147] | < 100 |
| COc1cccc(COc2ccc(NC(=O)Nc3cc(C(C)(C)C)on3)cc2)c1 [Compound G13] | < 100 |
| CC(C)(C)c1cc(NC(=O)Nc2ccc(NC(=O)c3c4ccccc4nc4ccccc34)cc2)no1 [Compound N148] | 1000 to 10000 |
| CC(C)(C)c1cc(NC(=O)Nc2ccc(OCc3c(Cl)cccc3Cl)cc2)no1 [Compound G19] | 100 to 1000 |
| CC(C)(C)c1cc(NC(=O)Nc2ccc(NC(=O)c3nocc3C(C)(C)C)cc2)no1 [Compound N82] | 100 to 1000 |
| CC(C)(C)c1cc(NC(=O)Nc2ccc(OCCc3ccncc3)cc2)no1 [Compound G22] | < 100 |
| COc1ccc(-c2cc(C(=O)Nc3ccc(NC(=O)Nc4cc(C(C)(C)C)on4)cc3)c(C)o2)cc1 [Compound N118] | 1000 to 10000 |
| CC(C)(C)c1cc(NC(=O)Nc2ccc(NC(=O)c3cc([N+](=O)[O-])ccn3)cc2)no1 [Compound N7] | < 100 |
| CC(=O)Oc1cccnc1C(=O)Nc1ccc(NC(=O)Nc2cc(C(C)(C)C)on2)cc1 [Compound N79] | < 100 |
| CC(C)(C)c1cc(NC(=O)Nc2ccc(NC(=O)c3ccc(Oc4ccnc(C(=O)O)c4)cc3)cc2)no1 [Compound N166] | < 100 |
| Cc1sc(NC(=O)Nc2ccc(Cl)cc2)c(C(N)=O)c1C [Compound Z58] | > 10000 |
| Cc1ccc(NC(=O)c2ccc(NC(=O)Nc3cc(C(C)(C)C)on3)cc2)cc1 [Compound N84] | < 100 |
| CC(C)(C)c1cc(NC(=O)Nc2ccc(OCC3CCC3)cc2)no1 [Compound G39] | < 100 |
| Cn1cc(C(=O)Nc2ccc(NC(=O)Nc3cc(C(C)(C)C)on3)cc2)c(C(F)(F)F)n1 [Compound N20] | 100 to 1000 |
| CC(C)(C)c1cc(NC(=O)Nc2ccc(OCc3ccc(Cl)cc3)cc2)no1 [Compound G34] | < 100 |
| CC(C)(C)c1cc(NC(=O)Nc2ccc(OCc3ccccc3C(F)(F)F)cc2)no1 [Compound G4] | 100 to 1000 |
| CC(C)(C)c1cc(NC(=O)Nc2ccc(NC(=O)c3cc4cc(Br)ccc4s3)cc2)no1 [Compound N126] | 100 to 1000 |
| COC(=O)c1ccc(C(=O)Nc2ccc(NC(=O)Nc3cc(C(C)(C)C)on3)cc2)nc1 [Compound N12] | 100 to 1000 |
| Cc1nc(-c2ccc(Cl)cc2)sc1C(=O)Nc1ccc(NC(=O)Nc2cc(C(C)(C)C)on2)cc1 [Compound N184] | 100 to 1000 |
| Cc1noc(-c2ccc(NC(=O)Nc3cc(C(C)(C)C)on3)cc2)n1 [Compound P9] | < 100 |
| CC(C)(C)c1cc(NC(=O)Nc2ccc(OC(F)(F)F)cc2)on1 [Compound A13] | 100 to 1000 |
